The values below come from article PMC12311729, “Probing the Mechanism of L‑DOPA 2,3-Dioxygenase Using Synthetic Derivatives of 3,4-Dihydroxyhydrocinnamic Acid” (ACS Omega, 2025).

Series [1] in a line: Cyclic voltammetry (redox potentials on a GCE). It counts as physicochemical. The settings on record: GCE (d = 2 mm). The text has this: Reduction and oxidation potentials were experimentally performed by cyclic voltammetry (CV) at biological pH 7.4, as previously described. All samples were run on a CH Instruments 600E Potentiostat in a one-compartment cell equipped with a three-electrode system arrangement. The three-electrode system included a saturated calomel electrode as the reference electrode, a platinum wire as the auxiliary electrode, and a glassy carbon electrode (GCE, d = 2 mm) as the working electrode. The GCE was polished between each sample scan with an aqueous slurry of alumina powder on a microcloth pad. The electrodes were rinsed with distilled water prior to the next scan. All scans were conducted under nitrogen for oxygen displacement and at room temperature (rt, 25 ± 1 °C). All samples were prepared as close to the scan as possible (approximately 2 min each). Each sample (5 mL) contained 0.1 mM catecholic substrate and 1 μM DMSO in 0.1 M phosphate buffer at a pH of 7.4 or 6.0. […] The cyclic voltammograms for the compounds at both pH 6.0 and 7.4 are available in Figures S40–S51.

Details of series [2]: method as in Biochemistry 2021, 60, 32, 2492–2507. The settings on record: percentage of L-DOPA; ref Biochemistry 2021, 60, 32, 2492–2507; cited from earlier work.
On the set-up of series [3]: method as in Biochemistry 2021, 60, 32, 2492–2507. The settings on record: percentage of L-DOPA; ref Biochemistry 2021, 60, 32, 2492–2507; cited from earlier work. This is another data set of the same source.
Series [4] has as its target L-DOPA 2,3-dioxygenase from S. lincolnensis (LmbB1) (Streptomyces lincolnensis, UniProt Q54354). Also on record: method as in Biochemistry 2021, 60, 32, 2492–2507. As to conditions: percentage of L-DOPA; ref Biochemistry 2021, 60, 32, 2492–2507; cited from earlier work.
Details of series [5]: method as in Biochemistry 2021, 60, 32, 2492–2507. As to conditions: percentage of L-DOPA; ref Biochemistry 2021, 60, 32, 2492–2507; cited from earlier work. The source holds these as a separate data set.
Series [6] is described as follows: Determination of pKa values by spectrophotometric titration. The settings on record: first catecholic deprotonation; determined spectroscopically from pH 3 to 12.5.
Substrate in series [7]: N#Cc1cc(O)c(O)cc1CCC(=O)O
Description: UV-visible steady-state assay of L-DOPA 2,3-dioxygenase (LmbB1). It counts as biochemical, Streptomyces lincolnensis. As to conditions: other: S. lincolnensis enzyme, pH 7.5, 22 °C. As to the method: (§1) Purified, reconstituted L-DOPA 2,3-dioxygenases were assessed for activity by monitoring the cleavage of catecholic substrates using UV–visible spectroscopy. 3,4-Dihydroxyhydrocinnamic acid (DHHCA, 3) was purchased from Sigma-Aldrich. 6-CyanoDHHCA (5) and 6-bromoDHHCA (4) were synthesized as described above.
(§2) Molecular oxygen (AirGas) was bubbled directly into the reaction buffer through a glass-bonded silica gas diffuser (Bubblemac Industries, Inc.) or as a gas mixture blended with air (AirGas). Solutions were bubbled with oxygen for several minutes prior to use and for the duration of the experiment. To determine the K M for oxygen (i.e., K MO2), L-DOPA 2,3-dioxygenases (0.25–4.0 μM) were reacted with a saturating concentration of the catecholic substrate DHHCA/6-X-DHHCA derivatives (2–10× the K M sufficient to achieve k cat) and various oxygen concentrations (21–100% or 270–1300 μM at 22 °C). The concentration of oxygen was varied by changing the percentage of oxygen in the blend using a galvanic oxygen sensor and oxygen monitor (AirGas) and then bubbling solutions, as described above. […]
(§3) The extinction coefficients for steady-state cleavage products of DHHCA and synthetic 6-X-DHHCA derivatives were determined by reacting various concentrations of DHHCA/6-X-DHHCA derivatives at 22 °C with a 10-fold stoichiometric excess of enzyme (quantified by Fe^II–see Reconstitution) in 50 mM HEPES buffer with 154 mM NaCl at pH 7.5, bubbled with 100% oxygen to a final concentration of 780–910 μM, depending on the volume of oxygenated buffer that comprised the reaction (60–70%). Substrate solutions were prepared from authentic synthetic standards using an analytical balance, and reactions were run to completion as assessed by the appearance of the steady-state product. The λmax and extinction coefficients of DHHCA, 6-cyanoDHHCA, and 6-bromoDHHCA were determined herein as ε380 = 40 740 ± 820 M^–1cm^–1, ε385 = 33 256 ± 484 M^–1cm^–1, and ε380 = 35 282 ± 1190 M^–1cm^–1, respectively (Figure S52). […]

Substrate in series [8]: O=C(O)CCc1cc(O)c(O)cc1Br
Described as above. The settings on record: other: S. lincolnensis enzyme, pH 7.5, 22 °C. It counts as biochemical, Streptomyces lincolnensis. As to the method:
as §1, §2, §3

Substrate in series [9]: O=C(O)CCc1ccc(O)c(O)c1
The series is described as above. As to conditions: other: S. lincolnensis enzyme, pH 7.5, 22 °C. It counts as biochemical, Streptomyces lincolnensis. As to the method: as §1, §2, §3

As for `NCCc1ccc(O)c(O)c1` [Dopamine (DA, 2), dopamine], in [1] (pH 6.0), the “(E p)a Oxidation” value came out at 354 mV, the “(E p)c Reduction” value came out at 84 mV, the E1/2 is 219 mV and the Ipa/Ipc is listed as 2.89. In series [1] (pH 6.0), this molecule registered a ΔE p of 270 mV. In addition, in series [1] (pH 7.4), the “(E p)a Oxidation” value is listed as 178 mV, the “(E p)c Reduction” value came out at 54 mV, the E1/2 worked out at 116 mV and the Ipa/Ipc is listed as 1.32. In series [1] (pH 7.4), this molecule yielded a ΔE p of 124 mV. In [2], the “Catecholic pKa value relative to L-DOPA x 100” value is 102%. Moreover, the “E1/2 (mV) at pH 7.4 relative to L-DOPA x 100” value in [3] is on record as 58%. Also, in series [4], the “kSP, O2 (μM^-1 min^-1) at pH 7.5 relative to L-DOPA x 100 for LmbB1” value is on record as 6%. In addition, in [5], the “CSEV (Å^3) relative to L-DOPA x 100” value is 84%. Also, in series [6], the pK a value came out at 8.99 ± 0.05.

B1: L-DOPA 2,3-dioxygenase from S. lincolnensis (LmbB1) (Streptomyces lincolnensis) (protein)
chain: MPSVKSMPPVSVHHVGVQTADLDNSISWYQEFFGCTVSWTLDTFSALTHSRLPGIERLAELRYGDVRFHHIGVKSGAAERSPAEANQFQHVCFAVGSPTELEAWRSRWLELYARGRWTFAVPERATDIDVDKDGVRSFYALDPNGLEYEFTYVPDGPR
Consider B1, for which the results for the Km in series [7], in [8] and in series [9] were 131 ± 16 µM, 205 ± 24 µM and 922 ± 152 µM, respectively.
